Measurements: patent US20240254138A1, “TRICYCLIC PYRIMIDINES AS CYCLIN-DEPENDENT KINASE 7 (CDK7) INHIBITORS” (JANSSEN PHARMACEUTICA NV, priority 2021, published 2024)
Read-outs that look alike come from different tables or passages of the source.

Legend:
[1] = test system: RNA Polymerase II Serine 5 phosphorylation in A549 cells overexpressing CDK7-mutant (C312S); assay: Imaging-based cellular RNA PolII Ser5 phosphorylation assay in A549 cells overexpressing CDK7-mutant (C312S); type: cell-based, human; details: RNA PolII Ser5 phosphorylation, averaged over all measurements; for IC50: Homo sapiens, A549, A549 cells overexpressing CDK7-mutant (C312S), read-out: CDK7_A549 mutant hCDK7(pIC50) (converted); for CDK7_A549 mutant hCDK7(pIC50): A549 cells overexpressing CDK7-mutant (C312S)
How it was run: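 A549 cells overexpressing CDK7 C312S (with endogenous wild-type CDK7) were treated with compound for 3 h at 37 °C in 1% FBS medium. Phospho-Rpb1 CTD Ser5 was immunostained after fixation and imaged. IC50 came from curve fit of % control, normalised to DMSO and 10 μM reference-compound controls.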

[2] = test system: RNA Polymerase II Serine 5 phosphorylation (Rpb1 CTD, downstream substrate of CDK7) in A549 cells; assay: Imaging-based cellular RNA PolII Ser5 phosphorylation assay in A549 cells; type: cell-based, human; details: wild-type CDK7, RNA PolII Ser5 phosphorylation, averaged over all measurements; for IC50: Homo sapiens, A549, A549 cells, read-out: CDK7_A549 Wild-type CDK7 (pIC50) (converted); for CDK7_A549 Wild-type CDK7 (pIC50): A549 cells
How it was run: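 A549 cells, seeded 1000/well in DMEM with 1% FBS and cultured 20 h, were treated with compound for 3 h at 37 °C. Ser5-phospho-Rpb1 CTD detected by immunofluorescence imaging after fixation and methanol permeabilization; IC50 from curve fit normalized to DMSO and 10 μM reference-compound controls.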

[3] = target: CDK7/cyclinH/MAT1 trimeric complex (Homo sapiens, UniProt P50613); assay: In vitro CDK7 assay, potency of irreversible covalent inhibitors (kinact/KI), coupled PK/LDH ADP readout at 340 nm; details: for Ki: CDK7 (20 nM enz.) (KI, μM); for kinact: read-out: CDK7 (20 nM enz.) (kinact, s^−1), 20 nM enzyme; for CDK7 (kinact/KI, M^−1*s^−1): potency of irreversible covalent inhibitors, 1 mM ATP, room temperature, averaged values over all measurements
Sequence of CDK7/cyclinH/MAT1 trimeric complex (P50613 whole entry): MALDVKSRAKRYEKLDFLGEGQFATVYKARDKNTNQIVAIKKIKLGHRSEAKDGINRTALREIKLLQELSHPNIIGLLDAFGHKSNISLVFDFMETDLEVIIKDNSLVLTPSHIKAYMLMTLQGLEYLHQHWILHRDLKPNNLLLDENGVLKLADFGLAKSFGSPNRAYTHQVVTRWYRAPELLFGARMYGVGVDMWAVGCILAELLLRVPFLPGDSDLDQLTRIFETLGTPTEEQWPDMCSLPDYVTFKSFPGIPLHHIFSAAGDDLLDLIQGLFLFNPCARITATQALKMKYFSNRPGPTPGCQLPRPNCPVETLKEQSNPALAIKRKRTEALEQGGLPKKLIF
Sequence of CDK7/cyclinH/MAT1 trimeric complex (P51946 whole entry partner): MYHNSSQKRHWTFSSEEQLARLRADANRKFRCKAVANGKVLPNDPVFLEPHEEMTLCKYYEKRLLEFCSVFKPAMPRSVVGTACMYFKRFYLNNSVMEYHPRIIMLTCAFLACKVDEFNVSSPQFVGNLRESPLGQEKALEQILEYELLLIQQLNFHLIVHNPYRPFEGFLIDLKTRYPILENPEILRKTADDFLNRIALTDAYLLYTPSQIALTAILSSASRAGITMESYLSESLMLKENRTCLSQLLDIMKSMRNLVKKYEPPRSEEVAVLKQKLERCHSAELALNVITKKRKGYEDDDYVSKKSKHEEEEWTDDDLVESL
Sequence of CDK7/cyclinH/MAT1 trimeric complex (P51948 whole entry partner): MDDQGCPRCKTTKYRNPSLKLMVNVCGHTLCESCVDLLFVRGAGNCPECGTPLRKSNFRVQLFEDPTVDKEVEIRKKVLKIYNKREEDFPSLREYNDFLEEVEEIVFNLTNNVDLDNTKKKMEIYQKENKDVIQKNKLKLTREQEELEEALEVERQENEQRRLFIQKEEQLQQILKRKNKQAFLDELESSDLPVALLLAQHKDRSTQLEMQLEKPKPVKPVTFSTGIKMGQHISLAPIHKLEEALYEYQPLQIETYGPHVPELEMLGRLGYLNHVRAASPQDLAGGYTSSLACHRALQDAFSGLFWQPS

[4] = read-out: CDK7 (20 nM enz.) (kinact/KI, M^−1*s^−1), 20 nM enzyme
[5] = read-out: CDK7 (20 nM enz.) (kobs/[I], M^−1*s^−1), 20 nM enzyme

IC50 [1] [nM]	IC50 [2] [nM]	melting point [°C]	Ki ([3]; 20 nM enzyme) [µM]	kinact [3] [s⁻¹]	kinact/KI [3, 4] [M⁻¹ s⁻¹]	kinact/KI [3, 5] [M⁻¹ s⁻¹]	CDK7_A549 mutant hCDK7(pIC50) [1]	CDK7_A549 Wild-type CDK7 (pIC50) [2]	CDK7 (20 nM enz.) (kinact, s^−1) ([3]; 20 nM enzyme) [s⁻¹]	CDK7 (20 nM enz.) (kinact/KI, M^−1*s^−1) ([3]; 20 nM enzyme) [M⁻¹ s⁻¹]	CDK7 (kinact/KI, M^−1*s^−1) [3] [M⁻¹ s⁻¹]	Compound
> 10000	4470	223.3	10.2	0.000115	11.3							C=CC(=O)N1CC(N2CCC(c3ccc4c(c3)Nc3nccc(-c5cnn(C)c5)c3[C@H](C)O4)CC2)C1 (single isomer, unassigned) [Compound 128]
> 10000	2090	288.5										C=CC(=O)N1CC(N2CCC(c3cc4c(c(C)n3)O[C@@H](C)c3c(N5CCOCC5)ccnc3N4)CC2)C1 (single isomer, unassigned) [Compound 265]
7080	224		0.0333	1.58e-05	475							C=CC(=O)N1CCC(n2cc(-c3cc(C)c4c(c3)Nc3nccc(N5CCOCC5)c3CO4)cn2)CC1 [Compound 379]
> 10000	162		0.241	4.27e-05	177							CC#CC(=O)N1CC(n2cc(-c3cc4c(c(C)n3)OC(C)c3c(N5CCOCC5)ccnc3N4)cn2)C1 (stereo not drawn) [Compound 380]
> 10000	204		3.26	4.7e-05	14.4							C=CC(=O)N1CCC(N2CCN(c3ccc4c(c3)Nc3nccc(N5CCOCC5)c3CO4)CC2)CC1 [Compound 382]
5130	355		0.03	7.49e-06	249							C=CC(=O)N1CCC(N2CC(c3cc4c(c(C#N)n3)OCc3c(N5CCOCC5)ccnc3N4)C2)CC1 [Compound 384]
4270	158		0.0211	1.2e-05	570							CC#CC(=O)N1CCC(N2CC(c3cc4c(c(C#N)n3)OCc3c(N5CCOCC5)ccnc3N4)C2)CC1 [Compound 385]
> 10000	141		0.0199	2.13e-05	1070							C=CC(=O)N1CCC(N2CCN(c3cc4c(c(C)n3)OCc3c(N5CCOCC5)ccnc3N4)CC2)CC1 [Compound 389]
> 10000	~61.7		0.0205	2.25e-05	1100							C=CC(=O)N1CCN(C2CCN(c3cc4c(c(C)n3)OCc3c(N5CCOCC5)ccnc3N4)CC2)CC1 [Compound 391]
> 10000	105		0.0477	2.18e-05	457							CC#CC(=O)N1CCC(N2CCN(c3cc4c(c(C)n3)OCc3c(N5CCOCC5)ccnc3N4)CC2)CC1 [Compound 393]
> 10000	339		0.313	1.25e-05	39.9							CC#CC(=O)N1CCN(C2CN(c3cc4c(c(C)n3)OCc3c(N5CCOCC5)ccnc3N4)C2)CC1 [Compound 394]
> 10000	93.3		0.0643	5.18e-05	807							CC#CC(=O)N1CCN(C2CCN(c3cc4c(c(C)n3)OCc3c(N5CCOCC5)ccnc3N4)CC2)CC1 [Compound 396]
> 10000	447		0.0839	6.61e-06	78.8							CC#CC(=O)N1CCC(n2cc(-c3cc4c(c(C)n3)OCc3c(N5CCOCC5)ccnc3N4)cn2)CC1 [Compound 399]
> 10000	105		0.0914	5.02e-05	549							CC#CC(=O)N1CC(N2CCC(c3cc4c(c(C5CC5)n3)OCc3c(C5CCOCC5)ccnc3N4)CC2)C1 [Compound 400]
> 10000	174		0.203	6.11e-05	300							CC#CC(=O)N1CC(N2CCC(c3cc4c(c(C)n3)OCc3c(C5CCOCC5)ccnc3N4)CC2)C1 [Compound 410]
> 10000	251		0.0611	4.36e-05	714							CC#CC(=O)N1CCC(n2ccc(-c3cc4c(c(C)n3)OCc3c(N5CCOCC5)ccnc3N4)cc2=O)CC1 [Compound 414]
2950	58.9		0.0223	1.51e-05	678							CC#CC(=O)N1CC(n2cc(-c3cc(C#N)c4c(c3)Nc3nccc(N5CCOCC5)c3C(C)O4)cn2)C1 (stereo not drawn) [Compound 417]
> 10000	55					1170						COC(=O)/C=C/C(=O)N1CC(N2CCC(c3cc4c(c(C)n3)OCc3c(-c5cnn(C)c5)ccnc3N4)CC2)C1 [Compound 431]

IC50 [1] [nM]	IC50 [2] [nM]	melting point [°C]	Ki ([3]; 20 nM enzyme) [µM]	kinact [3] [s⁻¹]	kinact/KI [3, 4] [M⁻¹ s⁻¹]	kinact/KI [3, 5] [M⁻¹ s⁻¹]	CDK7_A549 mutant hCDK7(pIC50) [1]	CDK7_A549 Wild-type CDK7 (pIC50) [2]	CDK7 (20 nM enz.) (kinact, s^−1) ([3]; 20 nM enzyme) [s⁻¹]	CDK7 (20 nM enz.) (kinact/KI, M^−1*s^−1) ([3]; 20 nM enzyme) [M⁻¹ s⁻¹]	CDK7 (kinact/KI, M^−1*s^−1) [3] [M⁻¹ s⁻¹]	Compound
> 10000	69.2					856						CCOC(=O)/C=C/C(=O)N1CC(N2CCC(c3cc4c(c(C)n3)OCc3c(-c5cnn(C)c5)ccnc3N4)CC2)C1 [Compound 435]
> 10000	575		0.311	4.3e-05	138							Cc1nc(C2CCN(C3CN(C(=O)/C=C/C(=O)OC(C)C)C3)CC2)cc2c1OCc1c(-c3cnn(C)c3)ccnc1N2 [Compound 436]
> 10000	1100		0.401	1.01e-05	25.2							C=CC(=O)N1CCC(C2CN(c3cc4c(c(C)n3)OCc3c(N5CCOCC5)ccnc3N4)C2)CC1 [Compound 439]
			0.0717				5.54	7.13	3.153e-05	439.69		C=CC(=O)N1CCC(N2CC(c3cc4c(c(C(F)(F)F)n3)OCc3c(N5CCOCC5)ccnc3N4)C2)CC1 [Compound 453]
> 10000	550		0.236	2.18e-05	92.5							C=CC(=O)N1CCC(N2CCC(c3cc4c(c(C)n3)OCc3c(N5CCOCC5)ccnc3N4)CC2=O)CC1 (stereo not drawn) [Compound 476]
> 10000	141				289							CC#CC(=O)N1CCC(N2CCC(c3cc4c(c(C)n3)OCc3c(N5CCOCC5)ccnc3N4)CC2=O)CC1 (stereo not drawn) [Compound 484]
3310	74.1				473							CC#CC(=O)N1CCC(N2CC(c3cc4c(c(C(F)(F)F)n3)OCc3c(N5CCOCC5)ccnc3N4)C2)CC1 [Compound 490]
7240	14.1					680						C=C(C(=O)N1CC(N2CCC(c3cc4c(c(C)n3)OCc3c(N5CCOCC5)ccnc3N4)CC2)C1)n1cccn1 [Compound 496]
> 10000	1740		0.0408	1.66e-05	409							CC#CC(=O)N1CCC(N2CC(c3cc4c(c(C#N)n3)OCc3c(-c5cnn(C)c5)ccnc3N4)C2)C1 (stereo not drawn) [Compound 529]
10200	427		0.0823	1.52e-05	184							Cc1nc(C2CN(C3CCN(C(=O)/C=C/CN(C)C)CC3)C2)cc2c1OCc1c(-c3cnn(C)c3)ccnc1N2 [Compound 532]
> 10000	> 10000		6.8									C=C(C)C(=O)N1CC(N2CCC(c3cc4c(c(C)n3)OCc3c(-c5cnn(C)c5)ccnc3N4)CC2)C1 [Compound 536]
> 10000	1320		0.0196									C=C(F)C(=O)N1CC(N2CCC(c3cc4c(c(C)n3)OCc3c(-c5cnn(C)c5)ccnc3N4)CC2)C1 [Compound 539]
> 10000	550		0.0301	7.15e-05	2310							Cc1nc(C2CCN(C3CN(C(=O)/C=C/CN(C)C)C3)CC2)cc2c1OCc1c(-c3cnn(C)c3)ccnc1N2 [Compound 540]
							<5	6.84			1065.34	C=CC(=O)N1CC(N2CCC(c3ccc4c(c3)Nc3nccc(N5CCOCC5)c3CO4)CC2)C1 [compound 7]
			0.13	7.07e-05	545		<5	6.4			710	C=CC(=O)N1CC(N2CCC(c3ccc4c(c3)Nc3nccc(N5CCS(=O)(=O)CC5)c3CO4)CC2)C1 [compound 14]
							<5	7.26			320.6	C=CC(=O)N1CC(N2CCC(c3ccc4c(c3)Nc3nccc(C5CCOCC5)c3CO4)CC2)C1 [compound 15]
						1030	<5	6.81			2083.98	C=CC(=O)N1CC(N2CCC(c3ccc4c(c3)Nc3nccc(C5CCOCC5)c3CO4)CC2)C1 [compound 34]
